Reference: the supplement of paper PMC10307832

Tests used:
Experiment in all cases: relative viability (nuclei count vs DMSO), 5 days (fraction); higher = more cells survive
NCI-H647 = system: NCI-H647
Procedure, shortened: (§1)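 Cells from lung cancer lines were seeded into 1536-well plates and, one day later, dosed by pin tool. Treatments were either a single drug or a fixed dose of an anchor drug with five library-drug doses (not always all listed) in √10 steps. After 5 days, nuclei were stained in a one-step fixation (final 0.05% Triton X-100, 1% formaldehyde, 1 ug/ml Hoechst) and counted on 4× images, and relative viability is the treated-to-vehicle nuclei ratio, as the median of duplicate plates.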

SW 1573 = system: SW 1573
Procedure, shortened: as §1

HCC-15 = system: HCC-15
Procedure, shortened: as §1

NCI-H2347 = system: NCI-H2347
Procedure, shortened: as §1

HCC-78 = system: HCC-78
Procedure, shortened: as §1

NCI-H2228 = system: NCI-H2228
Procedure, shortened: as §1

A-427 = system: A-427
Procedure, shortened: as §1

NCI-H2342 = system: NCI-H2342
Procedure, shortened: as §1

SK-LU-1 = system: SK-LU-1
Procedure, shortened: as §1

NCI-H1755 = system: NCI-H1755
Procedure, shortened: as §1

NCI-H1915 = system: NCI-H1915
Procedure, shortened: as §1

RERF-LC-KJ = system: RERF-LC-KJ
Procedure, shortened: as §1

## CC1(C)CCC(c2ccc(Cl)cc2)=C(CN2CCN(c3ccc(C(=O)NS(=O)(=O)c4ccc(N[C@H](CCN5CCOCC5)CSc5ccccc5)c(S(=O)(=O)C(F)(F)F)c4)cc3)CC2)C1 [Navitoclax] + COc1cccc2cc(-c3nc([C@H]4CC[C@H](C(=O)O)CC4)n4ncnc(N)c34)[nH]c12 [OSI-027] (partner 0.5 µM)
NCI-H647; first compound 0.05 µM
  relative viability: 0.891
NCI-H647; first compound 0.1581 µM
  relative viability: 0.611
NCI-H647; first compound 0.5 µM
  relative viability: 0.597
SW 1573; first compound 0.005 µM
  relative viability: 0.762
SW 1573; first compound 0.01581 µM
  relative viability: 0.782
SW 1573; first compound 0.05 µM
  relative viability: 0.638
SW 1573; first compound 0.1581 µM
  relative viability: 0.562
SW 1573; first compound 0.5 µM
  relative viability: 0.576
HCC-15; first compound 0.005 µM
  relative viability: 0.695
HCC-15; first compound 0.01581 µM
  relative viability: 0.746
HCC-15; first compound 0.05 µM
  relative viability: 0.573
HCC-15; first compound 0.1581 µM
  relative viability: 0.699
HCC-15; first compound 0.5 µM
  relative viability: 0.624
NCI-H2347; first compound 0.005 µM
  relative viability: 0.485
NCI-H2347; first compound 0.01581 µM
  relative viability: 0.451
NCI-H2347; first compound 0.1581 µM
  relative viability: 0.293
NCI-H2347; first compound 0.5 µM
  relative viability: 0.401
HCC-78; first compound 0.005 µM
  relative viability: 0.399
HCC-78; first compound 0.01581 µM
  relative viability: 0.343
HCC-78; first compound 0.1581 µM
  relative viability: 0.349
HCC-78; first compound 0.5 µM
  relative viability: 0.384
NCI-H2228; first compound 0.005 µM
  relative viability: 0.586
NCI-H2228; first compound 0.01581 µM
  relative viability: 0.726
NCI-H2228; first compound 0.1581 µM
  relative viability: 0.53
NCI-H2228; first compound 0.5 µM
  relative viability: 0.5
A-427; first compound 0.005 µM
  relative viability: 0.485
A-427; first compound 0.01581 µM
  relative viability: 0.525
A-427; first compound 0.05 µM
  relative viability: 0.444
A-427; first compound 0.1581 µM
  relative viability: 0.477
A-427; first compound 0.5 µM
  relative viability: 0.392
NCI-H2342; first compound 0.005 µM
  relative viability: 0.579
NCI-H2342; first compound 0.01581 µM
  relative viability: 0.632
NCI-H2342; first compound 0.05 µM
  relative viability: 0.628
NCI-H2342; first compound 0.1581 µM
  relative viability: 0.603
NCI-H2342; first compound 0.5 µM
  relative viability: 0.525
SK-LU-1; first compound 0.005 µM
  relative viability: 0.374
SK-LU-1; first compound 0.01581 µM
  relative viability: 0.429
SK-LU-1; first compound 0.05 µM
  relative viability: 0.347
SK-LU-1; first compound 0.1581 µM
  relative viability: 0.374
SK-LU-1; first compound 0.5 µM
  relative viability: 0.319
NCI-H1755; first compound 0.005 µM
  relative viability: 0.683
NCI-H1755; first compound 0.01581 µM
  relative viability: 0.834
NCI-H1755; first compound 0.05 µM
  relative viability: 0.612
NCI-H1755; first compound 0.1581 µM
  relative viability: 0.649
NCI-H1755; first compound 0.5 µM
  relative viability: 0.671
NCI-H1915; first compound 0.005 µM
  relative viability: 0.595
NCI-H1915; first compound 0.01581 µM
  relative viability: 0.636
NCI-H1915; first compound 0.05 µM
  relative viability: 0.627
NCI-H1915; first compound 0.1581 µM
  relative viability: 0.521
NCI-H1915; first compound 0.5 µM
  relative viability: 0.629
RERF-LC-KJ; first compound 0.005 µM
  relative viability: 0.568
RERF-LC-KJ; first compound 0.01581 µM
  relative viability: 0.633
RERF-LC-KJ; first compound 0.05 µM
  relative viability: 0.498
RERF-LC-KJ; first compound 0.1581 µM
  relative viability: 0.599
RERF-LC-KJ; first compound 0.5 µM
  relative viability: 0.616
